# According to publication PMC12314892, “Macrocyclic Phage Display for Identification of Selective Protease Substrates” (Journal of the American Chemical Society, 2025):
# Entries after “also recorded” stand apart in the source; their conditions may differ. *1 amine or outer side, *2 acyl side, *3 side chain or, on linkers, in order; H or OH if unused. Where a SMILES comes first, the peptide text is derived from it. Bridges are numbered along the chain shown (N, C = ends). The star is where a group is joined. X1 = NC(=O)Cc1cc(=O)oc2cc(NC(=O)[C@@H]3CCCN3C(=O)Cn3nc(C[*:1])cc3C[*:2])ccc12; X2 = NC(=O)Cc1cc(=O)oc2cc(NC(=O)[C@@H]3CCCN3C(=O)Cn3nc(C[*:2])cc3C[*:1])ccc12; AMC = Cc1cc(=O)oc2cc(N*)ccc12; Cbz = O=C(OCc1ccccc1)*
# Tested on: HEK293 Tet-Off cells with inducible FAPα expression
# Test: Live-cell substrate assay
# Format: cell-based
# Settings: triplicate; for substrate cleavage in cells (mean slope RFU per minute), in words: HEK293 FAP+ vs doxycycline-suppressed FAP- cells, 1400 cells per well in PBS, 200 μM substrate, 37 °C, 90 min; for substrate cleavage in cells after inhibitor pre-treatment, in words: cells pre-treated 30 min at 37 °C with 1 μM UAMC-1100 (FAPα) or VbP (DPP4) before 200 μM substrate
# Method: 7.5. The following commercial substrates were used: zGP-AMC (Bachem,Catalog No.: […]
# conducted in Greiner Bio-One black microplates of 384 wells and polystyrene F-bottom (Catalog No.: 784076). All compounds were dissolved in DMSO at a concentration of 10 mM and then diluted into the respective buffer to the desired final concentration. […]
# ACC substrates. […]
# HEK tet-off FAPα stable clonal cell line, received from the group of Jan Konvalinka, IOCB Prague, was cultured in IMDM medium with L-glutamine (Sigma-Aldrich, 51471C-1000ML), and supplemented with 10% […] and antibiotics – Geneticin G418 400 μg/ml (Roche, G418-RO) and Puromycin 0.5 μg/ml (Corning, MT61385RA) or Doxycycline 100 ng/ml (Sigma-Aldrich, D9891-1G). In general, cells were passaged at least two times after thawing before their use in cellular […]
# assays. FAPα expression was suppressed with Doxycycline for at least a week prior to an […]
# Live-cell substrate assay
# Cells were grown to near confluency and harvested via trypsinization. After dissociation, extra media with serum was added to prevent further trypsinization. To collect the cells, those were centrifuged for 3 min at 500G and media removed. Cells were washed a total of three times with PBS and resuspended in PBS to 100 cells per μL. To perform the activity assay 14 μL of suspended cells in PBS (100 cell/μL) were plated in a black 384-well low volume “V” bottom plate (total of 1400 cells per well) and pre-treated with 2 μL of either vehicle or inhibitors (1 μM final concentration) for 30 min at 37 °C. DMSO was used as the vehicle. The inhibitors used were […]
# DPP4 activity, respectively, in addition to other homologous proteases. After this time, 4 μL of the desired substrate was added to a final concentration of 200 μM and the fluorescence was recorded immediately. Fluorescence was measured using a Cytation 3 plate reader (BioTek). All experiments have at least three technical replicates. All assays were conducted at 37°C for 90 min, unless otherwise noted. Fluorescence measurements were performed at ex/em, 355/460 nm for ACC substrates. The substrates velocity was quantified by calculating the slope of the linear […]
# 3.2 Phage Display Methodology
# The library and panning protocol was adapted from Ekanayake et. al.2 […]
# The phage encoded library has the terminal sequence AACXXXXXXXCG. The complexity of the library is 1x109. In general a minimum of 5x1010 PFU were used for panning to have 50 copies of each sequence represented at the beginning of panning.
# General reagents for phage display
# 15.5 g of 2X YT broth (1.6% tryptone, 1.0% yeast extract, 0.5% sodium chloride) 500mL of MilliQ water in a 2L flask, autoclaved.
# YT media with 30 μg/mL final concentration of chloramphenicol (CA)
# 15.5 g of 2X YT broth (1.6% tryptone, 1.0% yeast extract, 0.5% sodium chloride) 500 mL of MilliQ water in a 2L flask, autoclaved. Let it cool to room temperature. Add 500 μL of 30 mg/mL chloramphenicol in ethanol.
# Agar plates of YT media with chloramphenicol (30 μg/mL CA)
# Weight out 31 g of 2X YT broth (1.6% tryptone, 1.0% yeast extract, 0.5% sodium chloride), 15 g of agar and add 1000 mL of MilliQ water. Autoclave. Let it cool down to approximately 55°C and add 1000 μL of 30 mg/mL CA in ethanol. Mix and pour into plates under sterile conditions.
SMILES,"substrate cleavage in cells (mean slope RFU per minute), in words","substrate cleavage in cells after inhibitor pre-treatment, in words"
CC(C)[C@@H]1NC(=O)[C@@H](N)CSCc2cc(n(CC(=O)N3CCC[C@H]3C(=O)Nc3ccc4c(CC(N)=O)cc(=O)oc4c3)n2)CSC[C@@H](C(=O)NCC(N)=O)NC(=O)[C@H](CC(=O)O)NC(=O)[C@H](C)NC(=O)[C@H](CC(N)=O)NC(=O)[C@H](CCC(N)=O)NC(=O)[C@H](Cc2ccccc2)NC(=O)[C@H](CO)NC1=O [FAP-33.2A6] (H-CVSFQNADCG-NH2; linker 1-9 via X1; N-terminus assumed),selectively cleaved in FAP+ cells,hydrolysis suppressed by the FAPα inhibitor UAMC1100 but not by the DPP4 inhibitor VbP
CC(C)C[C@@H]1NC(=O)[C@H](CC(N)=O)NC(=O)[C@H](CCC(N)=O)NC(=O)[C@H](Cc2ccccc2)NC(=O)[C@H](CO)NC(=O)[C@H](C(C)C)NC(=O)[C@@H](N)CSCc2cc(nn2CC(=O)N2CCC[C@H]2C(=O)Nc2ccc3c(CC(N)=O)cc(=O)oc3c2)CSC[C@@H](C(=O)NCC(N)=O)NC(=O)[C@H](CC(=O)O)NC1=O [FAP-33.2] (H-CVSFQNLDCG-NH2; linker 1-9 via X2; N-terminus assumed),no activity in cells,–
Cc1cc(=O)oc2cc(NC(=O)[C@@H]3CCCN3C(=O)CN)ccc12 [GP-AMC] (H-Gly-Pro-{AMC}),–,produced signals in HEK cells even when target proteases were chemically inhibited
Cc1cc(=O)oc2cc(NC(=O)[C@@H]3CCCN3C(=O)CNC(=O)OCc3ccccc3)ccc12 [zGP-AMC] (Cbz-Gly-Pro-{AMC}),–,processed in the presence of both inhibitors; also recorded: produced signals in HEK cells even when target proteases were chemically inhibited
